The record followed here is patent publication US20020151712A1, “3-pyrrolidinyloxy-3'-pyridyl ether compounds useful for controlling chemical synaptic transmission” (priority 1999, published 2002).

Counter-ions that a name gives are not always drawn.

Sequence of neuronal nicotinic acetylcholine receptors (P09483 31-630): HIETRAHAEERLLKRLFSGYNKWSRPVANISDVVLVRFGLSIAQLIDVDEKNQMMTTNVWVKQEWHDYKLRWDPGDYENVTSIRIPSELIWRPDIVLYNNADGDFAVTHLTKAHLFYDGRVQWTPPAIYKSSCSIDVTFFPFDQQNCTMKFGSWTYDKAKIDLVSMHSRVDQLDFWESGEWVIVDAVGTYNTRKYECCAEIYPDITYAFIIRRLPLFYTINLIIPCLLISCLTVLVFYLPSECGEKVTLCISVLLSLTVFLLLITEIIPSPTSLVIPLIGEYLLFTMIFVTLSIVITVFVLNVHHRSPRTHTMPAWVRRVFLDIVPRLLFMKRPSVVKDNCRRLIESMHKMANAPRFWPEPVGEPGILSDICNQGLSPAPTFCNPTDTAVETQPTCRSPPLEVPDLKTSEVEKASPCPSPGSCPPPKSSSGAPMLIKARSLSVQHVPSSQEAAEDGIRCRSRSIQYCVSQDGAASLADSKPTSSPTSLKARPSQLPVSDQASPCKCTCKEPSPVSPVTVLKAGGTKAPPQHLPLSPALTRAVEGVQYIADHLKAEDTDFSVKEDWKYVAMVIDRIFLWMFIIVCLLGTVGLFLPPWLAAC
Sequence of neuronal nicotinic acetylcholine receptors (P12390 25-500): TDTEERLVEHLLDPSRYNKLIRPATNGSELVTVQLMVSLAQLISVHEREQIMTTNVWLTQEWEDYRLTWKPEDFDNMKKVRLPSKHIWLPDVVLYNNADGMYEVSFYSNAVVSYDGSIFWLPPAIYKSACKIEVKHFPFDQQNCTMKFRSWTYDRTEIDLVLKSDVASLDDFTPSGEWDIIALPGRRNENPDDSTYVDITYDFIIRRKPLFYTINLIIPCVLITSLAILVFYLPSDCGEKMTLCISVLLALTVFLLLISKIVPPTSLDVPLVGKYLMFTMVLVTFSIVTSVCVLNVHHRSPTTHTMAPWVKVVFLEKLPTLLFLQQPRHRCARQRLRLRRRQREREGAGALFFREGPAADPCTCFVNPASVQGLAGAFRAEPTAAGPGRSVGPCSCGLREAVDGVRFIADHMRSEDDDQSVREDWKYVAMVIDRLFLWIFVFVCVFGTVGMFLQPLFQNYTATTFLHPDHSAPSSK

The first series deals with neuronal nicotinic acetylcholine receptors (Rattus norvegicus, UniProt P09483+P12390). The experiment in a line: [3H]-cytisine binding to neuronal nicotinic acetylcholine receptors, crude synaptic membranes from whole rat brain. Conditions: [3H]-CYT 1.25 nM, 60 minutes at 4° C., Ki from IC50 by Cheng and Prusoff correction. The method, then:
The in vitro protocols for determination of nicotinic acetylcholine channel receptor binding potencies of ligands was determined as follows.
Binding of [^3H]-cytisine ([^3H]-CYT) to neuronal nicotinic acetylcholine receptors was accomplished using crude synaptic membrane preparations from whole rat brain (Pabreza et al., Molecular Pharmacol., 1990, v. 39, p. 9). Washed membranes were stored at −80° C. prior to use. Frozen aliquots were slowly thawed and resuspended in 20 volumes of buffer (containing: 120 mM NaCl, 5 mM KCl, 2 mM MgCl2, 2 mM CaCl2 and 50 mM Tris-Cl, pH 7.4 at 4° C.). After centrifuging at 20,000×g for 15 minutes, the pellets were resuspended in 30 volumes of buffer.
The test compounds were dissolved in water to make 10 mM stock solutions. […]
Homogenate (containing 125-150 μg protein) was added to triplicate tubes containing the range of concentrations of test compound described above and [^3H]-CYT (1.25 nM) in a final volume of 500 μl. […] The filters are counted in 4 mL of Ecolume® (ICN). Nonspecific binding was determined in the presence of 10 μM (−)-nicotine and values were expressed as a percentage of total binding. IC50 values were determined with a four-parameter non-linear regression and IC50 values were converted to Ki values using the Cheng and Prusoff correction (Ki=IC50/(1+[ligand]/Kd of ligand).
Molecule `Clc1ncc(OC[C@@H]2CCNC2)cc1Br` [Example 35, 3-Bromo-2-chloro-5-(3-(R)-pyrrolidinylmethoxy)pyridine 4-methyl benzenesulfonate] came in with a Ki of 0.021 nM.

The test system of a further series is mice. The experiment in a line: mouse hot plate paradigm (analgesia). In kind it is in vivo. Conditions: mouse hot plate 55° C., intraperitoneal, dosed 30 minutes prior to testing, increase in tenth jump latency relative to control. The method, then: An in vivo protocol was utilized to determine the effectiveness of nicotinic acetylcholine receptor ligands as analgesic agents in the mouse hot plate paradigm. Separate groups of mice, (n=8/group) were utilized for each dose group. All drugs were administered by the intraperitoneal route of administration. Test drugs were dissolved in water to make a 6.2 mM stock solution. Animals were dosed with this solution (10 mL/kg body weight) for a 62 micromol/kg dose. Lower doses were administered similarly, following serial dilution of the stock solution in half-log increments. Animals were dosed 30 minutes prior to testing in the hot plate. The hot-plate utilized was an automated analgesia monitor (Model #AHP16AN, Omnitech Electronics, Inc. of Columbus, Ohio). The temperature of the hot plate was maintained at 55° C. and a cut-off time of 180 seconds was utilized. Latency until the tenth jump was recorded as the dependent measure. An increase in the tenth jump latency relative to the control was considered an effect.
In the case of `Clc1ncc(OCC2CCNC2)cc1Br` (stereo not drawn) [Example 25, 3-Bromo-2-chloro-5-(3-pyrrolidinylmethoxy)pyridine toluenesulfonate], the “minimally effective dose (MED), Dosage” value came to 6.2 µmol/kg. The same measure, in the same setting: for `CN1CCC(COc2cnc(Cl)c(Br)c2)C1` (stereo not drawn) [Example 26, 3-Bromo-2-chloro-5-(1-methyl-3-pyrrolidinylmethoxy) pyridine toluenesulfonate] the value was 62 µmol/kg; for `Cc1ccc(S(=O)(=O)O)cc1.Cc1cncc(OCC2CCNC2)c1` (stereo not drawn) [Example 27, 5-methyl-3-(3-pyrrolidinylmethoxy)pyridine tosylate], 19 µmol/kg.

As to `Cc1ccc(OC2CCCCNC2)cn1` (stereo not drawn) [Example 29, 3-(6-Methylpyridinyl-3-oxy)perhydroazepine dihydrochloride], the “minimally effective dose (MED), Dosage” value worked out at 62 µmol/kg.

System in a further series: not given
Test: not given
Details: not given
As to `CN1CC[C@H](Oc2cnc(Cl)c(Br)c2)C1.Cl` [Example 23, 3-(1-N-Methyl-3-(S)-pyrrolidinyloxy)-5-bromo-6-chloropyridine hydrochloride], the melting point is 180 °C (dec.).

Consider `CN1CC[C@H](Oc2cnc(Cl)c(C=Cc3ccncc3)c2)C1.Cl`, for which the melting point lay in the range of 106 to 108 °C. Regarding `Clc1cc(OCC2CCNC2)cnc1Cl` (stereo not drawn) (as salt: toluenesulfonate) [Example 33, 2,3-Dichloro-5-(pyrrolidinyl-3-methoxy)pyridine p-toluenesulfonate], the melting point lay in the range of 82 to 84 °C. Same read-out and setting: for `CN1CC[C@H](Oc2cncc(-c3ccccc3)c2)C1.Cl` [Example 16, 3-(1-Methyl-3-(S)-pyrrolidinyloxy)-5-phenylpyridine hydrochloride] the value was 88 to 90 °C; for `CCCCCCC#Cc1cncc(O[C@@H]2CCN(C)C2)c1.Cl` [Example 10, 3-(1-N-Methyl-3-(R)-pyrrolidinyloxy)-5-(1-octynyl)pyridine hydrochloride], 133 to 135 °C.

As for `Clc1ncc(OCC2CCNC2)cc1Br` (stereo not drawn) (as salt: toluenesulfonate) [Example 25, 3-Bromo-2-chloro-5-(3-pyrrolidinylmethoxy)pyridine toluenesulfonate], the melting point fell in the range of 105 to 107 °C.

The molecule `Cl.c1ncc(-c2cncc(O[C@H]3CCNC3)c2)cn1` [Example 11, 3-(3-(S)-pyrrolidinyloxy)-5-(5-pyrimidyl)pyridine hydrochloride] came in with a melting point of 60 to 62 °C. As for `Cl.Nc1cccc(-c2cncc(O[C@H]3CCNC3)c2)c1` [Example 14, 3-(3-(S)-Pyrrolidinyloxy)-5-(3-aminophenyl)pyridine hydrochloride], the melting point was 208 °C (dec.). Same read-out and setting: for `CC(C)(C)C=CC=Cc1cncc(O[C@H]2CCNC2)c1` (as salt: hydrochloride) [Example 7, 3-(3-(S)-Pyrrolidinyloxy-5-(5,5-dimethylhexadienyl)pyridine hydrochloride] the value was 148 °C (dec.). For `Cl.c1ccc(-c2cncc(O[C@@H]3CCNC3)c2)cc1` [Example 17, 3-(3-(R)-Pyrrolidinyloxy)-5-phenylpyridine hydrochloride], the melting point is 60 °C (dec.). Take `Cl.c1ncc(-c2cncc(O[C@@H]3CCNC3)c2)cn1` [Example 13, 3-(3-(R)-Pyrrolidinyloxy)-5-(5-pyrimidinyl)pyridine hydrochloride]: the melting point was 67 to 69 °C. In the case of `Fc1ccc(OC2CCCCNC2)cn1` (stereo not drawn) (as salt: hydrochloride) [Example 30, 3-(6-Fluoropyridinyl-3-oxy)perhydroazepine hydrochloride], the melting point is 121 to 122 °C. Still for that read-out and setting: then `CN1CC[C@@H](Oc2cncc(C=Cc3ccncc3)c2)C1.Cl` [Example 5, 3-(1-Methyl-3-(R)-pyrrolidinyloxy)-5-(2-(4-pyridyl)ethenyl)pyridine hydrochloride], with 88 to 90 °C; and `CN1CCC(COc2ccc(Cl)nc2)C1` (stereo not drawn) (as salt: toluenesulfonate) [Example 32, 2-Chloro-5-(1-methylpyrrolidinyl-3-methoxy)pyridine p-toluenesulfonate], with 75 to 77 °C; and `Cl.c1ccc(-c2cncc(O[C@H]3CCNC3)c2)cc1` [Example 15, 3-(3-(S)-Pyrrolidinyloxy)-5-phenylpyridine hydrochloride], with 60 °C (dec.). Take `Cl.Clc1ccc(-c2cncc(O[C@H]3CCNC3)c2)cc1` [Example 21, 3-(3-(S)-Pyrrolidinyloxy)-5-(4-chlorophenyl)pyridine hydrochloride]: the melting point was 65 °C (dec.). The same measure, in the same setting: then `c1csc(-c2cncc(O[C@@H]3CCNC3)c2)c1` (as salt: hydrochloride) [Example 19, 3-(3-(R)-Pyrrolidinyloxy)-5-thienylpyridine hydrochloride], with 201 to 203 °C; and `CCCCCCC#Cc1cncc(O[C@H]2CCNC2)c1.Cl` [Example 8, 3-(3-(S)-pyrrolidinyloxy)-5-(1-octynyl)pyridine hydrochloride], with 66 to 68 °C; and `Cl.Clc1ncc(O[C@H]2CCNC2)cc1Br` [Example 22, 3-(3-(S)-Pyrrolidinyloxy)-5-bromo-6-chloropyridine hydrochloride], with 178 to 180 °C.
